Results from patent US20250057951A1, “DISCERNIBLE CELL SURFACE PROTEIN VARIANTS OF CD117 FOR USE IN CELL THERAPY” (UNIVERSITÄT BASEL, priority 2021, published 2025).
“Also recorded” adds a separate entry of the source.

Experiments:
[1] = test system: antibody Refmab #1; experiment: Octet screen: binding of CD117 D1-2-3 variants to captured Refmab #1; details: nm shift at end of association, top analyte concentration (500 nM)
In short: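 Refmab #1 captured on anti-human Fc biosensors; human CD117 D1-2-3 wt or variants flowed as analyte at 500, 50 and 5 nM, 25° C., 300 s association/900 s dissociation, buffer-referenced. Binding level at top concentration, end of association, expressed as percent of wild type; 1:1 fits where possible.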

[2] = test system: TF-1 cells; experiment: SCF-dependent phosphorylation of CD117 variants in TF-1 cells (Tyr719 ELISA); assay type: cell-based, human; details: 1-20 ng/ml SCF for 5 minutes
Description: TF-1 cells (wild type, knock out, and variants E73K, D121K and S123K of CD117) were seeded at a concentration of 1 million cells/ml in 2 ml of Medium (RPMI1640 supplemented with GlutaMAX+10% heat inactivated FBS) in a 6-well plate. Cells were treated with 1-20 ng/ml recombinant human SCF (1 mg/ml PeproGMP Recombinant Human SCF) for 5 minutes, before cell collection. Cells were washed with ice-cold PBS, before resuspending cells in 500 μL Lysis Buffer (Lysis buffer from Signaling containing Protease Inhibitor and Phosphatase Inhibitor). Cells were flash frozen in liquid nitrogen and thawed at 37° C. twice, before freezing them at −80° C. until further usage. Undiluted samples were thawed and processed according to the manufacturers protocol for the PathScan Phospho-c-Kit (Tyr719) Sandwich ELISA Kit (Cell Signaling). Absorbance (OD_450 nm) was assessed using the Envision (Perkin Elmer).

[3] = test system: TF-1 cells; experiment: SCF-dependent proliferation, SCF titration on TF-1 cells with CD117 variants (CellTiter-Glo); assay type: cell-based, human; details: for EC50 Average: average of two experiments; for EC50 Experiment #1 / EC50 Experiment #2: titration of SCF, 3 days, TF-1 cells with the CD117 variant
Description: In another experiment, SCF-dependent proliferation of variants E73K, E73Y, D121K, S123F and S123K was compared against wildtype CD117. TF-1 cells were seeded at a cell concentration of 150 000 cells/ml in sterile, white cell culture treated plates with transparent bottom in RPMI+GlutaMax+10% FCS. Cells were treated with a titration of SCF. After 3 days of incubation a CellTiter-Glo 2.0 assay (Promega) was performed, luminescence was read in a luminometer (Envision plate reader) and EC50's was determined. Two different experiments with triplicates in each experiment were performed.

[4] = test system: Refmab #1; experiment: Refmab #1 titration on engineered TF-1 cells (flow cytometry); assay type: binding; details: 5-0.00015 μg/mL antibody; 4° C.
Description: Binding of Refmab #1 was assessed in a flow cytometry assay. TF-1 cells were seeded at a cell concentration of 1,000,000 cells/ml in FACS Buffer (PBS+2% FCS+1 mM EDTA). After a Fc blocking using 1:20 diluted TruStain (BioLegend, #422302) in FACS buffer for 15 minutes at 4° C., cells were washed twice with FACS buffer. Subsequently, a SR-1 titration was added to the cells using 5-0.00015 μg/mL antibody for 30 minutes at 4° C. on a plate shaker. Cells were washed twice with FACS buffer and a secondary labelled antibody (IgG (H+L) Cross-Adsorbed Goat anti-Human, Alexa Fluor® 488, Invitrogen, A11013) was added to the cells for 30 minutes at 4° C. on a plate shaker. Cells were washed twice with FACS buffer, before adding 1:100 diluted solution of 7AAD staining (cell viability) in FACS buffer for a couple of minutes and analyzing the cells using the Novocyte Quanteon (Agilent).

[5] = test system: antibody Refmab #1; experiment: Octet titration, steady state KD of CD117 D1-2-3 variants to Refmab #1; assay type: binding; details: nm shift higher than 0.1 nm counts as binding
Description: To further characterize binding of Refmab #1 to CD117 D1-2-3 variants E73K, E73L, E73R, E73Y, D121H, D121K, S123K and S123F, the analytes were titrated at 7 different concentrations (from 2000 nM to 5 nM). Antibody Refmab #1 was captured by AHC biosensors for 300 s at 0.5 to 1 μg/mL. Association and dissociation to Refmab #1 was extended to 600 s and 1000 s, respectively. Steady state analysis was performed.

[6] = target: T1, SCF (Homo sapiens, UniProt P21583); experiment: Octet: binding of CD117 D1-2-3 variants to SCF; details: CD117 D1-2-3 constructs; steady state
T1 construct: purchased Acros Biosystems SCF-H82E1
Description: SCF binding is one function of CD117. SCF binding is important for the transmission of functional signals by CD117. Binding of the elected variants to SCF was measured on an Octet system RED96e or R8 at 25° C. with shaking at 1000 rpm using 1× Kinetic Buffer (Sartorius, PN: 18-1105). […] Domain 1, 2, 3 comprise the binding site for SCF. Domains 4 and 5 were used as a negative, non-binding control.
CD117 D1-2-3 wt and variants thereof are titrated with different concentrations from 1000 to 5 nM. Association was monitored for 300 s and dissociation for 600 s. Binding to human CD117 domain 4 and 5 (CD117 D4-5) was performed under the same conditions as non-binding control. Reference subtraction was performed against buffer only wells. Biosensors were not regenerated and a new set of SA biosensors was used for each analyte. Data were analyzed using the Octet Data Analysis software HT 12.0. Steady state data analysis was performed due to the fast on/off nature of the interaction.

[7] = test system: Refmab #2; experiment: Octet: binding of CD117 variants to Refmab #2; details: qualitative Octet analysis
Description: A more sophisticated analysis of binding to the elected variants was performed with antibody Refmab #1. Binding of Refmab #1 to wt and variants (analyte) was measured in an Octet system RED96e or R8 at 25° C. with shaking at 1,000 rpm using 1× kinetic buffer (Sartorius, PN: 18-1105). First, the elected variants were screened for their ability to bind Refmab #1 using three different concentrations of analytes. Antibody Refmab #1 was captured by Anti-Human Fc capture biosensor (AHC) (Sartorius, PN: 18-5060) for 300 s at 0.5 to 1 μg/mL. As an analyte, human CD117 wt and variants, containing only domains 1, 2 and 3 (CD117 D1-2-3), was titrated at 500 nM, 50 nM and 5 nM. Association and dissociation of the analyte to Refmab #1 was monitored for 300 s and 900 s, respectively. Reference subtraction was performed against buffer only wells. AHC tips were regenerated using 10 mM Gly-HCl pH 1.7. Data were analyzed using the Octet Data Analysis software HT 12.0. Data were fitted (when possible) to a 1:1 binding model. Kinetic rates ka and […] globally fitted. Binding level of the elected variants were compared to wild type and are shown as percent in FIG. 7. For this qualitative analysis, the binding level of the top analyte concentration at end of the association step was used.
A similar experiment to that in Example 7 was performed, but utilizing Refmab's #2 and #3.

[8] = target: T2, Biotinylated Avitag-hSCF (human, UniProt P21583 26-190, limits assumed, biotinylated Avitag); experiment: BLI (Octet), steady state: biotinylated SCF on streptavidin biosensor, CD117 D1-2-3 variant as analyte; KD relative to WT
T2 construct: Bought reagent; also called hSCF (Acros Biosystems SCF-H82E1)
Description: Association was monitored for 300 s and dissociation for 600 s. […] Reference subtraction was performed against buffer only wells. Biosensors were not regenerated and a new set of SA biosensors was used for each analyte. Data were analyzed using the Octet Data Analysis software HT 12.0. Steady state data analysis was performed due to the fast on/off nature of the interaction.

[9] = test system: variants of CD117; experiment: Blocking of SCF-induced CD117 phosphorylation (Tyr719 ELISA), TF-1 cells with CD117 variants; assay type: cell-based, human; details: 0.5 μg/ml antibody 30 minutes; 100 ng/ml SCF 5 minutes; same for E73K, E73Y, S123F (data not shown)
Description: (§1) SCF-dependent phosphorylation is another function of CD117. SCF-dependent phosphorylation was measured using TF-1 cells expressing CD117 (as shown in previous experiments). TF-1 cells were seeded at a concentration of 1 million cells/ml in 1 ml of Medium (RPMI1640 supplemented with GlutaMAX+10% heat inactivated FBS) in a 6-well plate. Cells were treated with 0.5 ug/mL antibody or 500 nM avapratinib. Cells were then treated with 100 ng/ml recombinant human SCF (1 mg/ml PeproGMP® Recombinant Human SCF) for 5 minutes, before cell collection. Cells were washed with ice-cold PBS, before resuspending cells in 250 μL Lysis Buffer (Lysis buffer from Signaling containing Protease Inhibitor and Phosphatase Inhibitor). Cells were flash frozen in liquid nitrogen and thawed at 37° C. twice, before freezing them at −80° C. until further usage. Undiluted samples were thawed and processed according to the manufacturers protocol for the PathScan® Phospho-c-Kit (Tyr719) Sandwich ELISA Kit (Cell Signaling). Absorbance (OD_450 nm) was assessed using the Envision (Perkin Elmer).
(§2) TF-1 cells (wild type, and variants E73K, E73Y, D121K, S123F and S123K of CD117) were seeded at a concentration of 1 million cells/mL in 2 ml of Medium (RPMI1640 supplemented with GlutaMAX+10% heat inactivated FBS) in a 6-well plate. Cells were pre-treated with 0.5 μg/ml of antibodies Refmab #1-Ernie or Refmab #1-Bert for 30 minutes, before adding 100 ng/ml recombinant human SCF (1 mg/mL PeproGMP® Recombinant Human SCF) for 5 minutes. Cells were collected, washed once with ice-cold PBS and resuspended in 500 μL Lysis Buffer (Lysis buffer from Signaling containing Protease Inhibitor and Phosphatase Inhibitor). Cells were then flash frozen in liquid nitrogen and thawed at 37° C. twice, before freezing them at −80° C. until further usage. Undiluted samples were thawed and processed according to the manufacturers protocol for the PathScan Phospho-c-Kit (Tyr719) Sandwich ELISA Kit (Cell Signaling) or the Human c-Kit (CD117) ELISA Kit (Abcam). Absorbance (OD_450 nm) was assessed using the Envision (Perkin Elmer).

[10] = test system: CD117; experiment: Blocking of SCF-induced CD117 phosphorylation (Tyr719 ELISA), wild type TF-1 cells; assay type: cell-based, human; details: 0.5 ug/mL antibody or 500 nM avapritinib; 100 ng/ml SCF 5 minutes
Description: as §1, §2

Chain of antibody Refmab #1 (as listed by the source, one chain of several): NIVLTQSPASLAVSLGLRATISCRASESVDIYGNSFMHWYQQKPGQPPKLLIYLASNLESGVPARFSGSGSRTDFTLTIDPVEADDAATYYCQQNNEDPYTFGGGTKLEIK
T1 sequence (P21583 26-273): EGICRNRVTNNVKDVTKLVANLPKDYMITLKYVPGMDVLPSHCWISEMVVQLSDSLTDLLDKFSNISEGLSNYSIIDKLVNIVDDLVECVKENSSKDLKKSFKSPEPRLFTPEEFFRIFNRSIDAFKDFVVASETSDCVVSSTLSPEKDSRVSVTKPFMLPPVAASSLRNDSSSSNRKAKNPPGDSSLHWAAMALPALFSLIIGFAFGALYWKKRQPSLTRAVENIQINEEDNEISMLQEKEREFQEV
Chain of Refmab #1 (as listed by the source, one chain of several): as the sequence (as listed by the source, one chain of several) above
T2 sequence (P21583 26-190 limits assumed): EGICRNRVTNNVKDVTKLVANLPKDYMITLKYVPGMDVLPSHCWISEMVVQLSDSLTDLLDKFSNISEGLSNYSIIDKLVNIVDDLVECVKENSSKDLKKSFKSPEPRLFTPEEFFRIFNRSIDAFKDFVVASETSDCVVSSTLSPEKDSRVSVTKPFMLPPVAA

Row | Molecule | binding to Refmab #1 compared to wild type [1] | binding of Refmab #1 at 2000 nM variant [5] | binding to Refmab #2 compared to wild type CD117 [7] | SCF-dependent phosphorylation at position Tyr719 of CD117 [2] | EC50 Average [3] | EC50 Experiment #1 [3] | EC50 Experiment #2 [3] | Binding of Refmab #1 to TF-1 cells expressing the CD117 variant [4] | other results
1 | S123K: variant of human CD117 with substitution S123K | particular strong decrease in binding | No binding | – | showed a SCF-dependent phosphorylation | 3.54 ± 0.23 ng/mL | 3.76 ng/mL | 3.31 ng/mL | completely abolished | –
2 | D121K: variant of human CD117 with substitution D121K | particular strong decrease in binding | No binding | – | showed a SCF-dependent phosphorylation | 3.70 ± 0.45 ng/mL | 4.15 ng/mL | 3.25 ng/mL | completely abolished | –
3 | Refmab #1-Ernie: improved version of Refmab #1, VH SEQ ID 15, VL SEQ ID 62 (antibody, V domains shown, Refmab #1 VH) VH: QVQLQQPGAELVKPGASVKMSCKASGYTFTSYNMHWVKQTPGQGLEWIGVIYSGNGDTSYNQKFKGKATLTADKSSSTAYMQINSLTSEDSAVYYCARERDTRFGNWGQGTLVTVSA VL: EIVLTQSPSSLSASVGDRVTITCRASESVDIYGESFMHWYQQKPGKAPKLLIYLASNLESGVPSRFSGSGSGTDFTLTISSLQPEDFATYYCQQNNEEPYTFGQGTKLEIKRTV | – | – | – | – | – | – | – | – | blocking of SCF-dependent CD117 phosphorylation, D121K and S123K variants [9]: unaffected; blocking of SCF-induced phosphorylation, wild type cells [10]: blocked

Continued, in another order:

Row | binding to Refmab #1 compared to wild type [1] | binding of Refmab #1 at 2000 nM variant [5] | binding to Refmab #2 compared to wild type CD117 [7] | Molecule | SCF-dependent phosphorylation at position Tyr719 of CD117 [2] | EC50 Average [3] | EC50 Experiment #1 [3] | EC50 Experiment #2 [3] | Binding of Refmab #1 to TF-1 cells expressing the CD117 variant [4] | other results
4 | – | – | strong decrease in binding | S239H: variant of human CD117 with substitution S239H (protein) QPSVSPGEPSPPSIHPGKSDLIVRVGDEIRLLCTDPGFVKWTFEILDETNENKQNEWITEKAEATNTGKYTCTNKHGLSNSIYVFVRDPAKLFLVDRSLYGKEDNDTLVRCPLTDPEVTNYSLKGCQGKPLPKDLRFIPDPKAGIMIKSVKRAYHRLCLHCSVDQEGKSVLSEKFILKVRPAFKAVPVVSVSKASYLLREGEEFTVTCTIKDVHSSVYSTWKRENSQTKLQEKYNSWHHGDFNYERQATLTISSARVNDSGVFMCYANNTFGSANVTTTLEVVDKG | – | – | – | – | – | KD increase of SCF binding compared to wild type CD117 [6]: less than three-fold; also recorded: less than four-fold
5 | – | – | strong decrease in binding | S239K: variant of human CD117 with substitution S239K (protein) QPSVSPGEPSPPSIHPGKSDLIVRVGDEIRLLCTDPGFVKWTFEILDETNENKQNEWITEKAEATNTGKYTCTNKHGLSNSIYVFVRDPAKLFLVDRSLYGKEDNDTLVRCPLTDPEVTNYSLKGCQGKPLPKDLRFIPDPKAGIMIKSVKRAYHRLCLHCSVDQEGKSVLSEKFILKVRPAFKAVPVVSVSKASYLLREGEEFTVTCTIKDVKSSVYSTWKRENSQTKLQEKYNSWHHGDFNYERQATLTISSARVNDSGVFMCYANNTFGSANVTTTLEVVDKG | – | – | – | – | – | –
6 | particular strong decrease in binding | – | strong decrease in binding | R122H (receptor, not in the list MOLECULES; also called human CD117 D1-2-3 variant R122H) extracellular domains 1, 2 and 3: QPSVSPGEPSPPSIHPGKSDLIVRVGDEIRLLCTDPGFVKWTFEILDETNENKQNEWITEKAEATNTGKYTCTNKHGLSNSIYVFVRDPAKLFLVDHSLYGKEDNDTLVRCPLTDPEVTNYSLKGCQGKPLPKDLRFIPDPKAGIMIKSVKRAYHRLCLHCSVDQEGKSVLSEKFILKVRPAFKAVPVVSVSKASYLLREGEEFTVTCTIKDVSSSVYSTWKRENSQTKLQEKYNSWHHGDFNYERQATLTISSARVNDSGVFMCYANNTFGSANVTTTLEVVD | – | – | – | – | – | binding result [8]: binds
